Data reported in patent US5081122A, “Antiglaucoma compositions containing 4-arylcarbonyl-1-(4-morpholinyl)-lower-alkyl)-1H-indoles and method of use thereof” (Sterling Drug Inc., priority 1990, dated 1992).
pIC50: −log10 of the molar value. Counter-ions that a name gives are not always drawn.

Assays:
intraocular pressure = settings: topical application or systemic injection; literature; cited from earlier work
[1] = molecular target: T1, cannabinoid receptor binding sites (CP 55940 binding sites) (Rattus norvegicus, UniProt P20272); settings: result in words, literature (Devane et al.), radio-labelled CP 55940; natural and synthetic cannabinoids; cited from earlier work
T1 construct: from tissue; host or cells: rat brain membranes (inferred from the cited Devane et al. 1988)

[2] = molecular target: T1, cannabinoid receptor binding sites (CP 55940 binding sites); test: CP 55940 binding assay (given "CP 55490 [sic] binding assay" in the source)
Source text: (§1) Med. Assoc. 217, 1392 (1971)]. […] Opth. 7, 921-923 (1975); Green and Pederson, Effect of delta-9 Tetrahydrocannabinol on Aqueous Dynamics and Ciliary Body Permeability in the Rabbit Eye., Exptl. Eye Research 15, 499-507 (1973); Colasanti, Craig and Allara, Intraocular Pressure, Ocular Toxicity and Neurotoxicity after Administration of Cannabinol or Cannabigerol, Exptl. Eye Research 39, 252-259 (1984)]. Similarly, synthetic cannabinoids also reduce intraocular pressure [Green, Symunds, Oliver and Elijah, Intraocular Pressure Following Systemic Administration of Cannabinoids., Curr. Eye Research 2, 247-253 (1982); Tiedeman, Shields, Weber, Crow, Coccetto, Harris and Howes, Ophthalmology, 88, 270-277 (1981); Colasanti et al., supra]. […] 34, 605-613 (1988)]. Natural and synthetic cannabinoids and representative examples of the compounds of the present invention, bind to CP 55940 binding sites. […] It is believed that agonist activity at the cannabinoid receptor mediates the anti-glaucoma actions of cannabinoids, and that agonist activity at this receptor correlates with ocular pressure lowering actions in man.
The 3-R3 -4-arylcarbonyl-1-[(4-morpholinyl)-lower-alkyl]-1H-indoles of formula I were tested in the mouse vas deferens test and the CP 55490 binding assay. […]

cannabinoid receptor = molecular target: T2, cannabinoid receptor (Mus musculus, UniProt P47746); test: mouse vas deferens (MVD) test, inhibition of contractions in vitro; type: cell-based; settings: considered active at IC50 of 5.0 μM or less, read-out: MVD IC50 (inhibitory concentration which produces 50% of the maximum response)
T2 construct: mouse vasa deferentia (MVD) preparation in vitro; from tissue; host or cells: mouse vas deferens
Source text: as §1
The 3-R3 -4-arylcarbonyl-1-[(4-morpholinyl)-lower-alkyl]-1H-indoles of formula I were tested in the mouse vas deferens test and the CP 55490 binding assay. The results, expressed as the IC50 in μM (the inhibitory concentration which produces 50% of the maximum response), are given in the following table, the compounds being identified by the example number above where their preparations are described.

T1 sequence (P20272 whole entry): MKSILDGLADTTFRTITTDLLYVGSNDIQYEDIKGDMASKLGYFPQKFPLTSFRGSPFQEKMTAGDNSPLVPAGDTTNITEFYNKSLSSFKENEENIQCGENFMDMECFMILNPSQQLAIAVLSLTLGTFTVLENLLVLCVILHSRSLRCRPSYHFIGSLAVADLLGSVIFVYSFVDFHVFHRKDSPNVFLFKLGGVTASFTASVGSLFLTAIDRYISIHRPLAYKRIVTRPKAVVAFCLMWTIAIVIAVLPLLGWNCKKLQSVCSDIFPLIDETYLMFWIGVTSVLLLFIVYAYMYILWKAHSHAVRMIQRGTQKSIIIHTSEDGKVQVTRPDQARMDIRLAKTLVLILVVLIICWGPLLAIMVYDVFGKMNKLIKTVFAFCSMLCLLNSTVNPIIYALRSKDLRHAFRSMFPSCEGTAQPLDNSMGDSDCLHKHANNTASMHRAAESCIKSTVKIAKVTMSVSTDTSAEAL
T2 sequence (P47746 whole entry): as the sequence (P20272 whole entry) above, with E95D counted along it

Q: Which intraocular pressure (intraocular pressure) does the source give for `CCCCCc1cc(O)c2c(c1)OC(C)(C)C1CCC(C)=CC21` (single isomer, unassigned) [delta-9 tetrahydrocannabinol] here?
A: reduces intraocular pressure

Q: With `CCCCCCC(C)(C)c1ccc([C@@H]2C[C@H](O)CC[C@H]2CCCO)c(O)c1` [CP 55940, 4-(1,1-dimethylheptyl)-2,3'-dihydroxy-6'alpha-(3-hydroxypropyl)-1',2',3',4',5',6'-hexahydrobiphenyl] as the compound, how does the “binding to CP 55940 binding sites / cannabinoid receptor” value [1] read?
A: binds in a specific and saturable manner

Q: With `COc1ccc(C(=O)c2cccc3c2ccn3CCN2CCOCC2)cc1` [Example 1A, 4-(4-methoxybenzoyl)-1-[2-(4-morpholinyl)ethyl]-1H-indole hydrochloride] as the compound, how does the pIC50 [2] read?
A: 6.35

Q: And the pIC50 (cannabinoid receptor)?
A: 7.12

Q: With `COc1ccc(C(=O)c2cccc3c2ccn3CCCN2CCOCC2)cc1` [Example 1B, 4-(4-methoxybenzoyl)-1-[3-(4-morpholinyl)propyl]-1H-indole hydrochloride] as the compound, how does the pIC50 (cannabinoid receptor) read?
A: 7.48

Q: With `O=C(c1cccc2ccccc12)c1cccc2c1ccn2CCN1CCOCC1` [Example 1C, 1-[2-(4-morpholinyl)ethyl]-4-(1-naphthylcarbonyl)-1H-indole p-toluenesulfonate hydrate 3:1] as the compound, how does the pIC50 (cannabinoid receptor) read?
A: 8.52

Q: With `O=C(c1ccc2ccccc2c1)c1cccc2c1ccn2CCN1CCOCC1` [Example 1D, 4-(2-naphthylcarbonyl)-1-[2-(4-morpholinyl)ethyl]-1H-indolehydrochloride] as the compound, how does the pIC50 [2] read?
A: 6.44

Q: What about the pIC50 (cannabinoid receptor) of the same compound?
A: 6.79

Q: With `COc1ccc(C(=O)c2cccc3c2c(C)cn3CCN2CCOCC2)cc1` [Example 1E, 4-(4-methoxybenzoyl)-3-methyl-1-[2-(4-morpholinyl)ethyl)-1H-indole hydrochloride] as the compound, how does the pIC50 (cannabinoid receptor) read?
A: 5.30
